Data taken from patent US10624895B2, “Methods of sensitizing a patient with glioma to a therapeutic agent by administering small hairpin RNA targeting PDZ-RHOGEF” (THE TRANSLATIONAL GENOMICS RESEARCH INSTITUTE, priority 2016, dated 2020).

Tests used:
Format in all cases: cell-based, human
[1] = test system: TNFR1; assay: Western blot of TNFR1 expression after PPF treatment; details: T98G, GBM10, GBM43 cells, 5 μM PPF, 24 hours
Description: FIG. 24A—a Western blot analysis of TROY expression in T98G cells. Cells were treated with PPF at indicated concentrations for 6 hrs, lysed, and cell lysates immunoblotted with anti-TROY antibody. Immunoblotting of α-Tubulin in cell lysates is included as a loading control. FIG. 24B—Western blot analysis of TROY expression in T98G, GBM43, and GBM10 cells. Cells were treated with PPF at indicated concentrations for 24 hrs, lysed, and cell lysates immunoblotted with anti-TROY and α-Tubulin antibodies. FIG. 24C—Western Blot analysis of TROY expression in GBM10 and GBM43 primary glioma cells. Cells were treated with 5 μM PPF, lysed at the indicated time-points, and the lysates immunoblotted with an anti-TROY antibody. Immunoblotting of β-Actin in cell lysates is included as a loading control. FIG. […]—Western Blot analysis of T98G, GBM10 and GBM43 glioma cells treated with 5 μM PPF for 24 hours. […]
Referring now to FIGS. 24A, 24B, 24C, and 24D: The inventors investigated if PPF could be utilized pharmacologically to decrease TROY expression in GBM cells. […] Cells were treated with increasing concentration of PPF, 1 to 20 μM lysed, and TROY expression assessed by immunobloting. […] Protein concentrations were determined using the BCA Assay (Pierce). […] Protein bands were detected using SuperSignal® Chemiluminescent Substrate (Pierce) with a UVP BioSpectrum 500 Imaging System.

[2] = test system: T98G, GBM10, and GBM43 cells; assay: Cell proliferation by automated cell counting; details: 5, 50, 500 μM PPF, up to 144 hours
Description: FIG. 25A—T98G, GBM43, and GBM10 cells were incubated with increasing concentrations of PPF (0, 5, 50, and 500 After 0, 48, 96 and 144 hours of treatment, cell were trypsinized and counted using an automated cell counter. FIG. 25B—GBM43, GBM10, and T98G glioma cells were treated with increasing doses of PPF (0.5, 1, 5, 10, and 20 μM) in triplicate. The CellTiterGlo® (Promega) reagent was used to measure survival. Raw values were normalized on a plate-by-plate basis such that 100% cell viability was equivalent to the mean of vehicle wells and 0% cell viability was equivalent to the mean of the MG132 positive control. The normalized data was used to assess viability of glioma cells after PPF treatment.
Referring now to FIGS. 25A and 25B: To determine if PPF influences glioma cell proliferation, the inventors treated T98G, GBM10, and GBM43 cells with increasing concentrations of PPF and evaluated cell proliferation over the course of 144 hours. Briefly, 1.25×10^5 cells were seeded (n=3) in 12-well plates in 1 mL of DMEM supplemented with 10% FBS and allowed to attach at 37° C. for 16 hrs. […] After 0, 48, 96 and 144 hours of treatment, the cells were trypsinized and counted using the automated cell counter. […] Subsequently, 100 μL of CellTiterGlo® reagent was added to each well and luminescence was measured using Envision Reader. […]

[3] = test system: T98G, GBM10, and GBM43 glioma cells; assay: Matrigel invasion assay; details: 5 μM PPF, 24 hours, 10% FBS
Description: FIGS. 27A and 27B depict that PPF suppresses GBM cell invasion and Rac1 activation. FIG. 27A—T98G, GBM10, and GBM43 glioma cells were treated with 5 μM PPF and invasion was assayed over 24 hours utilizing a Matrigel® invasion assay, *p<0.05. FIG. 27B—T98G glioma cells were serum starved, pre-incubated with 5 μM PPF or vehicle for 1 hour, and then stimulated with 10% FBS for 2-10 mins. Cell lysates were harvested and equal concentrations of protein were assessed for Rac1 activation.
Referring now to FIGS. 27A and 27B: The inventors next examined whether PPF inhibited TROY dependent glioma cell invasion. […] Briefly, 5.0×10^5 cells glioma cells were seeded in 100-mm diameter culture dishes and incubated overnight at 37° C. Subsequently, cells were serum starved for 16 hours at 37° C. Cells were then harvested, re-suspended in growth factor reduced Matrigel® (Becton Dickinson) (1.0×10^5 cells/50 μL), added in triplicates to collagen-coated transwell chambers, and allowed to invade through Matrigel® in presence of 10% FBS and/or 5 μM PPF. After incubation for 24 hours at 37° C. non-invaded cells were scrapped off the upper side of the membrane and cells invaded to the other side of the membrane were fixed with 4% paraformaldehyde (PFA) (Affymetrix) and stained with DAPI (Invitrogen). Nuclei of invaded cells were counted in five high power fields (HPF) with a 20× objective.

Structure (SMILES): CCCn1cnc2c1c(=O)n(CCCCC(C)=O)c(=O)n2C [PPF, 3-methyl-1-(5-oxohexyl)-7-propyl-3,7-dihydro-1H-purine-2,6-dione]
- TNFR1 expression [1]: did not affect the expression
- glioma cell proliferation [2]: did not affect the proliferation
- glioma cell invasion [3]: significantly inhibited glioma cell invasion
